# Assays:
# [1] = test system: Mtb-infected J774 cells; details: 10 μM for 24 h; 5 days post-infection
# [2] = test system: J774 cells; experiment: Intracellular drug accumulation assay in J774 cells; details: 24 h exposure; uninfected J774 cells
# [3] = test system: Mtb; experiment: Mtb growth assay in standard 7H9 media (OD600); details: 10 μM
# Text: Bacterial growth was tracked by measuring OD600 every 3 days for 12 days. […] Bacterial growth was tracked by measurement of D600 every 3 days over 12 days.
# [4] = test system: Mtb; experiment: C3HeB/FeJ murine Mtb infection model; format: in vivo, C3HeB/FeJ mice
# Experimental: C3HeB/FeJ wild type mice (Jackson Laboratories) were infected intranasally with 10^3 CFUs of Mtb (35 μl), under light anesthesia with 2% isoflurane (MacGilvary et al, 2019; Sukumar et al, 2014; Tan et al, 2013). […] The next day the suspension was homogenized by bead beating with 5 mm steel beads in a TOMY microtube mixer (2×20 s), and stored at 4° C. until use. […] Administration began at two or six weeks post-infection as indicated. At time of sacrifice, the left lobe and accessory right lobe of the lung were homogenized in PBS+0.05% Tween 80 and serial dilutions plated on 7H10 agar plates with 100 μg/ml cycloheximide for bacterial load determination. The remaining three right lobes were fixed in 4% PFA in PBS. One lobe was used for histological analysis by standard hematoxylin and eosin (H&E) staining (Tufts Comparative Pathology Services). A Nikon Eclipse E400 with a SPOT insight color digital camera was used to image the histology samples.
# [5] = Mouse plasma stability; format: in vitro ADME; details: after 5 h incubation
# Experimental: (§1) Assays examining mouse and human liver microsomal stability, kinetic aqueous solubility, mouse and human plasma protein binding and stability, and human cytochrome P450 inhibition characteristics of the compounds were run by BioDuro, Incorporated, using standard protocols as previously described (Wang et al, 2020). hERG inhibition assays were also performed by BioDuro, Incorporated.
# [6] = test system: murine bone marrow derived macrophages phagosome; experiment: Phagosomal maturation assays with sensor beads; format: cell-based, mouse; details: 10 μM
# Experimental: Carboxyfluorescein (pH readout), DQ-BSA/Alexa Fluor 594 (AF594) (proteolysis readout), and 10,10′-Bis[3-carboxylpropyl]-9,9′-biacridinium (BAC)/AF594 (Cl^− readout) beads were generated as previously described (Podinovskaia et al, 2013; Tan et al, 2013; Tan et al, 2017; Yates et al, 2008). Bone marrow-derived macrophages were isolated from C57BL/6J mice (Jackson Laboratories) and maintained as described above. 2×10^5 macrophages/well were seeded into 96-well clear bottom black plates, and utilized in assays one-two days post-seeding. […] Assay buffer consisted of PBS, pH 7.2, supplemented with 5% FBS, 5 mM dextrose, 1 mM CaCl2, 2.7 mM KCl, and 0.5 mM MgCl2 in the case of assays with the carboxyfluorescein or DQ-BSA/AF594 beads (Buter et al, 2019; Dutta et al, 2020). For assays with the BAC/AF594 beads, assay buffer consisted of PBS, pH 7.2, supplemented with 5% FBS, 5 mM dextrose, 1 mM calcium acetate, 1.35 mM K2SO4, and 0.5 mM MgSO4 (Tan et al, 2013). Sensor beads at ˜2-5 beads/macrophage in appropriate assay buffer were finally added, with data acquisition on a Biotek Synergy H1 microplate reader with bottom read signal detection started within 2-3 minutes of bead addition. Excitation/emission wavelengths were 450 nm/520 nm and 490 nm/520 nm for carboxyfluorescein, 490 nm/520 nm for DQ-BSA, 365 nm/505 nm for BAC, and 590 nm/617 nm for AF594. Each experiment was run with a total of 3-5 replicate wells/condition, with temperature maintained at 37° C. throughout the assay. Wells were read every 2 minutes for 2 hours for the carboxyfluorescein bead assays, every 2 minutes for 4 hours for the DQ-BSA/AF594 bead assays, and every 1 minute for 2 hours for the BAC/AF594 bead assays. Analyses of the results were performed as previously described (Buter et al, 2019; Dutta et al, 2020; Podinovskaia et al, 2013; Tan et al, 2013).
# [7] = test system: Mtb in bone marrow-derived macrophages (BMDMs); experiment: Mtb growth in primary murine bone marrow-derived macrophages (CFU); format: cell-based, Mycobacterium tuberculosis; details: 10 μM; added 2 hrs post-infection; eight-day time-course
# Experimental: C57BL/6J wild type mice (Jackson Laboratories) were used for extraction of bone marrow-derived macrophages. Cells were harvested and expanded in DMEM containing 10% FBS, 15% L-cell conditioned media, 2 mM L-glutamine, 1 mM sodium pyruvate, and penicillin/streptomycin as needed in a 37° C. incubator in a 5% CO2 atmosphere. […] Macrophages were lysed with water containing 0.01% sodium dodecyl sulfate and a dilution series of the samples plated on 7H10 agar for CFU determination.
# [8] = molecular target: T1, human CYP 450 1A2 (Homo sapiens, UniProt P05177); experiment: Human cytochrome P450 inhibition, 1A2; format: in vitro ADME; details: 10 μM
# T1 sequence (P05177 1-516): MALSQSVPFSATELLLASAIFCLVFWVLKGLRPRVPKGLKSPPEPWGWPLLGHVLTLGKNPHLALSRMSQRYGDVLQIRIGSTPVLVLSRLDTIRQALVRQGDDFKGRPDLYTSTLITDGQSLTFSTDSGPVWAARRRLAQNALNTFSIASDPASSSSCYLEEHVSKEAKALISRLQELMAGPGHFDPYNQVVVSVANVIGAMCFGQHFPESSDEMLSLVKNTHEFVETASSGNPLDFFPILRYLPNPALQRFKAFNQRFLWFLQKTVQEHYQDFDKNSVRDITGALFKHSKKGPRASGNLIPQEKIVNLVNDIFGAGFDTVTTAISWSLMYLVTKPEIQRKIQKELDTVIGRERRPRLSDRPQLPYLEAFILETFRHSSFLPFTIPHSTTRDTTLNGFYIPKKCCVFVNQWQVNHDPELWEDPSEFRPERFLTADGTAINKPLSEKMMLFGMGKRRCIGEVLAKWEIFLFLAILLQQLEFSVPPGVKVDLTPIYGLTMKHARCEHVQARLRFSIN
# [9] = Human plasma stability; format: in vitro ADME; details: after 5 h incubation
# Experimental: as §1
# [10] = 250 mg/kg oral gavage 5 times a week for 2 weeks, started 2 weeks post-infection
# [11] = 250 mg/kg oral gavage for two or four weeks, started 6 weeks post-infection
compound,measurement,setting,value
"CCSc1ncc(CN2CCN(c3nc4ccccc4o3)CC2)cn1 [Compound C6, 2-(4-((2-(ethylthio)pyrimidin-5-yl)methyl)piperazin-1-yl)benzo[d]oxazole]",accumulation in Mtb-infected J774 cells,[1],trend of greater C6 accumulation in the Mtb-infected J774 cells than uninfected J774 cells
same,intracellular accumulation in J774 cells,[2],dose-dependent accumulation
same,Mtb growth in standard 7H9 media,[3],no effect
same,"Mtb growth in lungs (CFU), short-term infection",[4]; [10],significantly inhibited Mtb growth in the mice lungs
same,"lung histology, short-term infection",[4]; [10],less cellular infiltration
same,"lung bacterial load, longer-term infection",[4]; [11],significant decrease in bacterial load
same,"lung histopathology, longer-term infection",[4]; [11],improved histopathology
same,"stability in mouse plasma, % remaining",[5],> 99.9%
same,increase in [Cl−] during macrophage phagosomal maturation,[6]; BAC/AF594 beads,no significant effect
same,macrophage phagosomal proteolytic activity,[6]; DQ-BSA/AF594 beads,did not affect macrophage phagosomal proteolytic activity
same,macrophage phagosomal acidification,[6]; carboxyfluorescein beads,did not alter macrophage phagosomal acidification
same,Mtb bacterial load / growth in primary murine BMDM (in words),[7],significant decrease in bacterial load
same,% inhibition of CYP 1A2,[8],< 1%
same,"stability in human plasma, % remaining",[9],94.6%
